Reference: US20090247752A1, “GATIFLOXACIN-CONTAINING AQUEOUS LIQUID PREPARATION, ITS PRODUCTION AND METHOD FOR SUPPRESSING FORMATION OF PRECIPITATE DURING STORAGE AT LOWER TEMPERATURE AND AT THE TIME OF FREEZING AND THAWING OF THE AQUEOUS LIQUID PREPARATION” (Kyorin Pharmaceutical Co., Ltd., priority 2008, published 2009)
Values after ≈ are worked out from the molar mass of the structure shown.

Assay: Solubility test of Gatifloxacin (Test Example 1)
Format: physicochemical
Details: for solubility thermodynamic at 3 h: pH 6.5, aqueous buffer, thermodynamic from solid, pH 6.5, stirred 3 hours at room temperature
Method: According to the formulations shown in Table 1, a saturated solution of Gatifloxacin containing the given amount of each additive was prepared. The solution containing sodium dihydrogen phosphate, boric acid or malonic acid was adjusted to a pH of 6.5 with hydrochloric acid and sodium hydroxide, and then stirred for 3 hours at room temperature. The solution containing nicotinamide was adjusted to 6.0 with hydrochloric acid and sodium hydroxide, filled in glass ampoules and shaken for 2 days at room temperature. As a control, a saturated solution of Gatifloxacin containing no additive was prepared, its pH was adjusted to 6.5 with hydrochloric acid and sodium hydroxide, and stirred for 3 hours at room temperature. Each solution was filtered through a membrane filter (0.45 μm), and the filtrate (1 mL) was precisely measured and a diluent was added thereto to precisely make its volume up to 50 mL. The resultant solution (3 mL) was precisely measured, an internal standard solution (3 mL) was precisely added thereto, and a diluent was added thereto to precisely make its volume up to 20 mL to prepare a sample solution. The concentration of Gatifloxacin was measured in the sample solution (20 μL) under the following HPLC conditions. The solubility was converted in terms of Gatifloxacin 3/2 hydrate.
Detector: Ultraviolet absorptiometer (measurement wavelength: 280 nm) Column: Inertsil ODS-2 […], 4.6 mmφ×150 mm, GL Sciences Inc. Column temperature: 40° C. Mobile phase: acetonitrile (180 mL), water (810 mL) and triethylamine (10 mL) were mixed, and the pH was adjusted to 4.5 with phosphoric acid. Flow rate: 0.8 mL/min Injection amount: 20 μL Internal standard solution: a mobile phase solution of methyl p-aminobenzoate (1→10000) Diluent: Mixture of acetonitrile, water and phosphoric acid (200:800:0.8)

With `COc1c(N2CCNC(C)C2)c(F)cc2c(=O)c(C(=O)O)cn(C3CC3)c12` (racemic) [Gatifloxacin, (±)-1-cyclopropyl-6-fluoro-1,4-dihydro-8-methoxy-7-(3-methyl-1-piperazinyl)-4-oxo-3-quinolinecarboxylic acid] the “Solubility of Gatifloxacin” value (nicotinamide 1 w/v %, pH 6.0, shaken 2 days at room temperature, in terms of 3/2 hydrate) was 1.41 w/v %, the solubility thermodynamic at 3 h (sodium dihydrogen phosphate dihydrate 0.5 w/v %, in terms of 3/2 hydrate) was 7200 µg/mL (≈ 19.2 mM) and the solubility thermodynamic at 3 h (sodium dihydrogen phosphate dihydrate 1 w/v %, in terms of 3/2 hydrate) was 9100 µg/mL (≈ 24.2 mM). It also gave a solubility thermodynamic at 3 h (saturated solution containing boric acid 0.5 w/v %, boric acid 0.5 w/v %, in terms of 3/2 hydrate) of 5800 µg/mL (≈ 15.5 mM), a solubility thermodynamic at 3 h (saturated solution containing boric acid 1 w/v %, boric acid 1 w/v %, in terms of 3/2 hydrate) of ~6000 µg/mL (≈ 16 mM) and a solubility thermodynamic at 3 h (saturated solution containing malonic acid 0.5 w/v %, malonic acid 0.5 w/v %, in terms of 3/2 hydrate) of 9600 µg/mL (≈ 25.6 mM). For the same molecule, the solubility thermodynamic at 3 h (saturated solution containing malonic acid 1 w/v %, malonic acid 1 w/v %, in terms of 3/2 hydrate) was 9300 µg/mL (≈ 24.8 mM) and the solubility thermodynamic at 3 h (saturated solution containing no additive (control), no additive (control), in terms of Gatifloxacin 3/2 hydrate) was 5300 µg/mL (≈ 14.1 mM).
